Literature values, collected in patent US4430326A (University Patents, Inc., priority 1981, dated 1984).

How the values were obtained:
[1] = system: glycogenolytic stimulation; conditions: Cote, et al.
adenylate cyclase system = conditions: literature reports

Substance | reported action toward glycogenolytic stimulation [1] | reported action on adenylate cyclase activity (agonist / antagonist) (adenylate cyclase system)
N^α -trinitrophenyl glucagon | partial agonist | –
N^α,N^ε -di(trinitrophenyl)-glucagon | – | agonists
[12-homoargine]glucagon | – | full agonist
